Molecular target: T1, Androgen Receptor (AR) (Homo sapiens, UniProt P10275, T878A)
T1 construct: cell based immuno-fluorescence assay using the LNCaP prostate epithelial cell line; endogenous in cells; host or cells: LNCaP clone FGC (ATCC CRL-1740)
T1 sequence (P10275 1-920 T878A): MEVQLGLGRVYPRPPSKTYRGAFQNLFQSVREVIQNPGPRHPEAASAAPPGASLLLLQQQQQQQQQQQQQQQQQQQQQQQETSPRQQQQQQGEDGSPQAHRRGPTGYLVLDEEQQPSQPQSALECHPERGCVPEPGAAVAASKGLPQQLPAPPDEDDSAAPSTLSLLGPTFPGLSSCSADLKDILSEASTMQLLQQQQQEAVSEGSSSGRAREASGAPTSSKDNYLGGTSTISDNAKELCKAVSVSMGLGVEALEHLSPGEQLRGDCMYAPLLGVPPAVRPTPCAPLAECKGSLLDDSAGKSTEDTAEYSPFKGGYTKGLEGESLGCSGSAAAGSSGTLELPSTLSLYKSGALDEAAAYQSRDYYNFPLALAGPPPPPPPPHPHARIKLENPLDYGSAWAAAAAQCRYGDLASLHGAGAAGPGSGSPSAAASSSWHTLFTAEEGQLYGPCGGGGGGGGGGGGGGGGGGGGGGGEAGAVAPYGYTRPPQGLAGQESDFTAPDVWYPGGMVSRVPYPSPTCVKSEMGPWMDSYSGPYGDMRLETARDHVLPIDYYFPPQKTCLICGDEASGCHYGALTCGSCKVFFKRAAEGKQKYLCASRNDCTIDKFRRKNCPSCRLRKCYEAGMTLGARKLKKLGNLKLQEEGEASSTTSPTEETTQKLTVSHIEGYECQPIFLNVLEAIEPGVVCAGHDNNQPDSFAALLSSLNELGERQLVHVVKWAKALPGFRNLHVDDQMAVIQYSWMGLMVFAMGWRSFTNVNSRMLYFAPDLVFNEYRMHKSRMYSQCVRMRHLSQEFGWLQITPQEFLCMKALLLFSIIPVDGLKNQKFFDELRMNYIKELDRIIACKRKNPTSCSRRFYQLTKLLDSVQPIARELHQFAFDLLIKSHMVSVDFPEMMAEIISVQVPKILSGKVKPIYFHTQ
Test: LNCaP Androgen Receptor Down-regulation Cell Assay (immunofluorescence end point)
Format: cell-based
Conditions: LNCaP prostate carcinoma cells, compound incubation 20-22 hours, 50% reduction of the AR signal; read-out: Androgen Receptor Down-regulation Assay (a) IC50/μM
Method in brief: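 LNCaP cells in medium with 5% charcoal-stripped FBS were plated overnight, then treated with a compound dilution series for 20-22 h at 37° C. After fixation, permeabilisation and immunostaining, AR-associated green fluorescence was quantified by laser-scanning microplate cytometry; AR down-regulation expressed as IC50 from fitted dose-response curves.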

Row | DC50 [µM] | Structure (SMILES)
1 | 8.4 | FC(F)(F)c1nnc2ccc(N3CC4CN(Cc5ccccn5)CC4C3)nn12 (stereo not shown) [Example 786]
2 | 2.2 | COc1ncccc1CN1CC2CN(c3ccc4nnc(C(F)(F)F)n4n3)CC2C1 (stereo not shown) [Example 788]
3 | 2.1 | Fc1cncc(CN2CC3CN(c4ccc5nnc(C(F)(F)F)n5n4)CC3C2)c1 (stereo not shown) [Example 789]
4 | 2 | FC(F)(F)c1nnc2ccc(N3CC4CN(Cc5cccnc5Cl)CC4C3)nn12 (stereo not shown) [Example 790]
5 | 0.96 | FC(F)(F)c1nnc2ccc(N3CC4CN(Cc5ccc(Cl)nc5)CC4C3)nn12 (stereo not shown) [Example 791]
6 | 1.6 | COc1ccc(CN2CC3CN(c4ccc5nnc(C(F)(F)F)n5n4)CC3C2)cn1 (stereo not shown) [Example 793]
7 | 1.1 | FC(F)(F)c1nnc2ccc(N3CC4CN(Cc5cncc(Br)c5)CC4C3)nn12 (stereo not shown) [Example 794]
8 | 2.4 | Fc1ncc(Br)cc1CN1CC2CN(c3ccc4nnc(C(F)(F)F)n4n3)CC2C1 (stereo not shown) [Example 795]
9 | 0.63 | FC(F)(F)c1nnc2ccc(N3CC4CN(Cc5cccnc5Br)CC4C3)nn12 (stereo not shown) [Example 796]
10 | 2.4 | COc1cncc(CN2CC3CN(c4ccc5nnc(C(F)(F)F)n5n4)CC3C2)c1 (stereo not shown) [Example 797]
11 | 1 | FC(F)(F)c1nnc2ccc(N3CC4CN(Cc5ccc(Br)nc5)CC4C3)nn12 (stereo not shown) [Example 798]
12 | 1.6 | Cc1ncccc1CN1CC2CN(c3ccc4nnc(C(F)(F)F)n4n3)CC2C1 (stereo not shown) [Example 799]
13 | 1.1 | FC(F)(F)c1nnc2ccc(N3CC4CN(Cc5cnccc5Cl)CC4C3)nn12 (stereo not shown) [Example 800]
14 | 7 | COc1ccncc1CN1CC2CN(c3ccc4nnc(C(F)(F)F)n4n3)CC2C1 (stereo not shown) [Example 803]
15 | 1 | FC(F)(F)c1ncccc1CN1CC2CN(c3ccc4nnc(C(F)(F)F)n4n3)CC2C1 (stereo not shown) [Example 805]
16 | 2.3 | COc1cccc(OC2CCN(c3ccc4nnc(C(F)(F)F)n4c3)CC2)c1 [Example 806, 6-[4-(3-methoxyphenoxy)piperidin-1-yl]-3-(trifluoromethyl)[1,2,4]triazolo[4,3-a]pyridine]
17 | 7.5 | FC(F)(F)c1nnc2ccc(N3CCN(Cc4c[nH]c5ccccc45)CC3)cn12 [Example 807]
18 | 1 | Fc1ccc2[nH]cc(CN3CCN(c4ccc5nnc(C(F)(F)F)n5c4)CC3)c2c1 [Example 808]
19 | 1.9 | Fc1ccc(C(F)F)c(CN2CCN(c3ccc4nnc(C(F)(F)F)n4c3)CC2)c1 [Example 810, 6-[4-[2-(difluoromethyl)-5-fluorobenzyl]piperazin-1-yl]-3-(trifluoromethyl)[1,2,4]triazolo[4,3-a]pyridine]
20 | 6.8 | Fc1cc(Cl)cc(CN2CCN(c3ccc4nnc(C(F)F)n4n3)CC2)c1 [Example 813]
21 | > 17 | Fc1ccc(Cl)c(CN2CCN(c3ccc4nnc(C(F)F)n4n3)CC2)c1 [Example 815]
22 | 3.8 | Fc1cc(CN2CCN(c3ccc4nnc(C(F)F)n4n3)CC2)cc(F)c1F [Example 818]
23 | > 18 | CS(=O)(=O)c1ccc(F)cc1CN1CCN(c2ccc3nnc(C(F)F)n3n2)CC1 [Example 819]

Row | DC50 [µM] | Structure (SMILES)
24 | 1.7 | Fc1cccc(CN2CCN(c3ccc4nnc(C(F)F)n4n3)CC2)c1Cl [Example 822]
25 | 4.7 | Fc1ccc(CN2CCN(c3ccc4nnc(C(F)F)n4n3)CC2)c(F)c1F [Example 823]
26 | 1.9 | FC(F)c1ccccc1CN1CCN(c2ccc3nnc(C(F)F)n3n2)CC1 [Example 824, 3-(difluoromethyl)-6-[4-[2-(difluoromethyl)benzyl]piperazin-1-yl][1,2,4]triazolo[4,3-b]pyridazine]
27 | 1.9 | FC(F)c1cccc(CN2CCN(c3ccc4nnc(C(F)F)n4n3)CC2)c1 [Example 825, 3-(difluoromethyl)-6-[4-[3-(difluoromethyl)benzyl]piperazin-1-yl][1,2,4]triazolo[4,3-b]pyridazine]
28 | 1.4 | FC(F)c1ccc(CN2CCN(c3ccc4nnc(C(F)F)n4n3)CC2)cc1 [Example 826, 3-(difluoromethyl)-6-[4-[4-(difluoromethyl)benzyl]piperazin-1-yl][1,2,4]triazolo[4,3-b]pyridazine]
29 | 1 | FC(F)c1ccc(CN2CCN(c3ccc4nnc(C(F)(F)F)n4n3)CC2)cc1 [Example 827, 6-[4-[4-(difluoromethyl)benzyl]piperazin-1-yl]-3-(trifluoromethyl)[1,2,4]triazolo[4,3-b]pyridazine]
30 | 9.5 | C[C@@H]1CN(c2ccc3nnc(C(F)(F)F)n3n2)CCN1Cc1ccncc1 [Example 828, 6-[(3R)-3-methyl-4-(pyridin-4-ylmethyl)piperazin-1-yl]-3-(trifluoromethyl)[1,2,4]triazolo[4,3-b]pyridazine]
31 | 0.85 | C[C@@H]1CN(c2ccc3nnc(C(F)(F)F)n3n2)CCN1Cc1cccc(Br)n1 [Example 830]
32 | 1.4 | C[C@@H]1CN(c2ccc3nnc(C(F)(F)F)n3n2)CCN1Cc1cccnc1Cl [Example 832]
33 | > 12 | C[C@@H]1CN(c2ccc3nnc(C(F)(F)F)n3n2)CCN1Cc1ccc(Cl)nc1 [Example 833]
34 | 20 | C[C@@H]1CN(c2ccc3nnc(C(F)(F)F)n3n2)CCN1Cc1cc(Br)cnc1F [Example 835]
35 | 1.6 | N#Cc1ccc(CN2CC3CN(c4ccc5nnc(C(F)(F)F)n5n4)CC3C2)cn1 (stereo not shown) [Example 837, 5-[[5-[3-(trifluoromethyl)[1,2,4]triazolo[4,3-b]pyridazin-6-yl]hexahydropyrrolo[3,4-c]pyrrol-2(1H)-yl]methyl]pyridine-2-carbonitrile]
36 | 7.6 | N#Cc1ccc(CN2CCN(c3ccc4nnc(C(F)(F)F)n4n3)CC2)cn1 [Example 838, 5-[[4-[3-(trifluoromethyl)[1,2,4]triazolo[4,3-b]pyridazin-6-yl]piperazin-1-yl]methyl]pyridine-2-carbonitrile]
37 | 1.1 | Fc1cccc(CN2CCN(c3ccc4nnc(C(F)(F)F)n4n3)CC(F)(F)C2)c1 [Example 842]
38 | 0.93 | N#Cc1ccc(CN2CCN(c3ccc4nnc(C(F)(F)F)n4n3)CC(F)(F)C2)cc1 [Example 843]
39 | 0.78 | N#Cc1cccc(CN2CCN(c3ccc4nnc(C(F)(F)F)n4n3)CC(F)(F)C2)c1 [Example 844]
40 | 0.9 | FC(F)(F)c1nnc2ccc(N3CCN(c4ccc(OCCn5ccnc5)cc4)CC3)nn12 [Example 845, 6-[4-[4-[2-(1H-imidazol-1-yl)ethoxy]phenyl]piperazin-1-yl]-3-(trifluoromethyl)[1,2,4]triazolo[4,3-b]pyridazine]
41 | 0.27 | FC(F)(F)c1nnc2ccc(N3CCC(c4ccc(OCCn5ccnc5)cc4)CC3)nn12 [Example 846, 6-[4-[4-[2-(1H-imidazol-1-yl)ethoxy]phenyl]piperidin-1-yl]-3-(trifluoromethyl)[1,2,4]triazolo[4,3-b]pyridazine]
42 | 3.5 | N#Cc1cnn(CCOc2ccc(N3CCN(c4ccc5nnc(C(F)(F)F)n5n4)CC3)cc2)c1 [Example 848, 1-[2-[4-[4-[3-(trifluoromethyl)[1,2,4]triazolo[4,3-b]pyridazin-6-yl]piperazin-1-yl]phenoxy]ethyl]-1H-pyrazole-4-carbonitrile]
43 | 0.68 | FC(F)(F)c1nnc2ccc(N3CCC(c4ccc(OCCn5cccn5)cc4)CC3)nn12 [Example 849, 6-[4-[4-[2-(1H-pyrazol-1-yl)ethoxy]phenyl]piperidin-1-yl]-3-(trifluoromethyl)[1,2,4]triazolo[4,3-b]pyridazine]
44 | 0.56 | N#Cc1cnn(CCOc2ccc(C3CCN(c4ccc5nnc(C(F)(F)F)n5n4)CC3)cc2)c1 [Example 850]
45 | 0.92 | COCCN(C)C(=O)COc1ccc(C2CCN(c3ccc4nnc(C(F)(F)F)n4n3)CC2)cc1 [Example 851, N-(2-methoxyethyl)-N-methyl-2-[4-[1-[3-(trifluoromethyl)[1,2,4]triazolo[4,3-b]pyridazin-6-yl]piperidin-4-yl]phenoxy]acetamide]
46 | 0.29 | CC(=O)N1CCN(CCOc2ccc(C3CCN(c4ccc5nnc(C(F)(F)F)n5n4)CC3)cc2)CC1 [Example 852, 6-[4-[4-[2-(4-acetylpiperazin-1-yl)ethoxy]phenyl]piperidin-1-yl]-3-(trifluoromethyl)[1,2,4]triazolo[4,3-b]pyridazine]

Row | Structure (SMILES) | DC50 [µM]
47 | Fc1ccc(CN2[C@@H]3CC[C@H]2CN(c2ccc4nnc(C(F)(F)F)n4n2)C3)cc1 [Example 839] | 1.1
48 | N#Cc1cccc(CN2[C@@H]3CC[C@H]2CN(c2ccc4nnc(C(F)(F)F)n4n2)C3)c1 [Example 840] | 2.6
49 | N#Cc1ccc(CN2[C@@H]3CC[C@H]2CN(c2ccc4nnc(C(F)(F)F)n4n2)C3)cc1 [Example 841] | 2.9

Reference: patent US8003649B2 (AstraZeneca AB, priority 2007, dated 2011)
